We go through one substance from patent US20180271960A1, “METHOD TO TREAT CANCER USING ARGININE DELPETOR AND ORNITHINE DECARBOXYLASE (ODC) INHIBITOR” (Bio-Cancer Treatment International Ltd., priority 2015, published 2018).

The subject of experiment [1] is HCC2935 lung adenocarcinoma cell line. As to the kind of experiment: MTT assay, growth inhibition of HCC2935 cell line. Format: cell-based. The conditions noted are these: 72 h at 10 ng/μl only. Here is the method:
(§1) The inhibition ratio (IR) and the half maximal inhibitory concentration (IC50) values are determined by a MTT assay.
On the technique in general: Tetrazolium assays rely on reduction of a dye to a coloured formazan, in cell work by metabolically active cells.

For experiment [2], the system named is H1975 lung adenocarcinoma cell line. As to the kind of experiment: MTT assay, growth inhibition of H1975 cell line. The class given is cell-based. The conditions noted are these: 48 h and 72 h at 0.5 ng/μl and 10 ng/μl. Here is the method:
as §1

As to “arginine deiminase [ADI, reference compound]”, the “growth inhibition effect (cell proliferation / toxicity)” value in experiment [1] was “does not inhibit HCC2935 lung adenocarcinoma cell line proliferation”. In experiment [2], the “growth inhibition effect (cell proliferation)” value is reported as “does not inhibit H1975 lung adenocarcinoma cell line proliferation”.
